Measurements from patent US4297369A, “Certain muscle relaxant 3-methyl-2-benzofuran acetamides” (Kyowa Hakko Kogyo Co., Ltd., priority 1979, dated 1981).
Counter-ions that a name gives are not always drawn.

Key:
[1] = tested on: tonic extensor seizures in mice (electroshock); assay: Maximal electroshock convulsion test; assay type: in vivo, male dd mice; details: 100 mg/Kg p.o., 1 hr before shock; blocking tonic extensor seizures
Protocol: (§1) Anticonvulsant activity was determined according to the following three methods.
Groups of 10 male dd mice weighing 22-24 g were used. The drugs were orally administered and one hr. later, the mice were subjected to an electric current (2000 V, 50 mA) for 0.2 sec. through corneal electrodes. Drug activity is expressed as the percent blocking tonic extensor seizures.

[2] = Acute toxicity, oral, mice; details: mouse, in vivo, p.o., 7 days mortality
Protocol: (§2) Male dd mice weighing 19-21 g and male Wistar rats weighing 170-190 g were used in groups of 3-6 animals. The drugs were suspended in a 0.3% carboxymethyl cellulose solution and administered orally. […] As the reference compound, benzydamine.HCl was dissolved in water and administered orally. (In Example, 6, 7 and 8, the drugs and benzydamine. HCl were also administered in the same manner.

mice [3] = assay: Muscle relaxant activity: slant test; assay type: in vivo, male dd mice
Protocol: (§3) Groups of 5 male dd mice weighing 19-21 g were used. The mice which remained for a period of 3 min. on a 3 cm diameter rod rotating at 5 r.p.m. were selected and tested to determine the muscle relaxant activity at 1, 2 and 4 hr. after drug administration. The methods employed are as follows.
Each mouse was mounted on a 45°-inclined wire netting to examine whether it fell off or not.
(§4) In each test, the compound was considered to have the muscle relaxant activity when the mice fell off.

[4] = tested on: tonic extensor seizures in mice (strychnine); assay: Strychnine convulsion test; assay type: in vivo, male dd mice; details: 1 hr before strychnine 2 mg/kg s.c.
Protocol: as §1
Groups of 10 male dd mice weighing 19-21 g were used. The drugs were orally administered and one hr. later, strychnine was injected subcutaneously at 2 mg/kg. Drug activity is expressed as the percent blocking tonic extensor seizures.

[5] = tested on: clonic seizures in mice (pentetrazol); assay: Pentetrazol convulsion test; assay type: in vivo, male dd mice; details: 1 hr before pentetrazol 120 mg/kg s.c.
Protocol: as §1
Groups of 10 male dd mice weighing 19-21 g were used. The drugs were orally administered and one hr. later, pentetrazol was injected subcutaneously at 120 mg/kg. Drug activity is expressed as the percent blocking clonic seizures.

mice [6] = assay: Muscle relaxant activity: traction test; assay type: in vivo, male dd mice
Protocol: as §3
Forefeet of each mouse were placed on a wire to examine whether it fell off or not.
as §4

[7] = tested on: acetic acid writhing in mice; assay: Analgesic activity: acetic acid writhing; assay type: in vivo, male dd mice; details: number of writhes vs control
Protocol: Groups of 10 male dd mice weighing 19-21 g were used. One hr. after drug administration, 0.2 ml of a 0.7% aqueous solution of acetic acid was injected intraperitoneally. Ten min. after acetic acid injection, the number of writhes was counted for each mouse during the following 10 min. Drug activity is expressed as the percent inhibition of the number of writhes in the control group.

[8] = tested on: carrageenin hind paw edema in rats; assay: Anti-inflammatory activity: carrageenin paw edema; assay type: in vivo, male Wistar rats; details: edema 3 hr after carrageenin, vs control
Protocol: Groups of 5 male Wistar rats weighing 130-150 g were used. One hr. after drug administration, 0.1 ml of a 1% aqueous suspension of carrageenin was injected into the plantar surface of the right hind paw. The volume of the injected paw was measured before and 3 hr. after carrageenin injection by mercury displacement. Drug activity is expressed as the percent difference between the test and control groups' edema.

mice [9] = assay: Muscle relaxant activity: rotating rod test; assay type: in vivo, male dd mice
Protocol: as §3
Each mouse was mounted on a rotating rod to examine whether it fell off or not within 2 min.
as §4

[10] = Acute toxicity, oral, rats; details: rat, in vivo, p.o., 7 days mortality
Protocol: as §2

[11] = 200 mg/kg p.o., 1 hr after administration
[12] = 200 mg/kg p.o., 2 hr after administration
[13] = 200 mg/kg p.o., 4 hr after administration
[14] = 300 mg/kg p.o., 1 hr after administration
[15] = 300 mg/kg p.o., 2 hr after administration
[16] = 300 mg/kg p.o., 4 hr after administration

## CN(C)CCCOc1nn(Cc2ccccc2)c2ccccc12 [Benzydamine . HCl, reference compound]
[1]
  % Inhibition, Maximal Electroshock Test: 100%
[2]
  LD50 at 168 h: 500 to 1000 mg/kg
Mice [3]; [11]
  No. of falling mice/five tested mice, slant test: 2 mice/five tested mice
Mice [3]; [12]
  No. of falling mice/five tested mice, slant test: 1 mice/five tested mice
Mice [3]; [13]
  No. of falling mice/five tested mice, slant test: 0 mice/five tested mice
[4]; 100 mg/Kg p.o.
  % Inhibition, Strychnine Convulsion Test: 70%
[5]; 200 mg/Kg p.o.
  % Inhibition, Pentetrazole Convulsion Test: 0%
Mice [6]; [11]
  No. of falling mice/five tested mice, traction test: 0 mice/five tested mice
Mice [6]; [12]
  No. of falling mice/five tested mice, traction test: 0 mice/five tested mice
Mice [6]; [13]
  No. of falling mice/five tested mice, traction test: 0 mice/five tested mice
[7]; 400 mg/Kg p.o.
  Analgesic Activity, % Inhibition: 95.2%
[8]; 400 mg/Kg p.o.
  Anti-inflammatory Activity, % Inhibition: 20.9%
Mice [9]; [11]
  No. of falling mice/five tested mice, rotating rod test: 4 mice/five tested mice
Mice [9]; [12]
  No. of falling mice/five tested mice, rotating rod test: 2 mice/five tested mice
Mice [9]; [13]
  No. of falling mice/five tested mice, rotating rod test: 0 mice/five tested mice
[10]
  LD50 at 168 h: > 1500 mg/kg

## Cc1ccc2oc(CC(=O)N(C)C)c(C)c2c1 [B, 2-dimethylcarbamoylmethyl-3,5-dimethylbenzo[b]furan]
[1]
  % Inhibition, Maximal Electroshock Test: 80%
[2]
  LD50 at 168 h: > 3000 mg/kg
Mice [3]; [14]
  No. of falling mice/five tested mice, slant test: 5 mice/five tested mice
Mice [3]; [15]
  No. of falling mice/five tested mice, slant test: 4 mice/five tested mice
Mice [3]; [16]
  No. of falling mice/five tested mice, slant test: 0 mice/five tested mice
[4]; 300 mg/Kg p.o.
  % Inhibition, Strychnine Convulsion Test: 88%
[5]; 150 mg/Kg p.o.
  % Inhibition, Pentetrazole Convulsion Test: 90%
Mice [6]; [14]
  No. of falling mice/five tested mice, traction test: 5 mice/five tested mice
Mice [6]; [15]
  No. of falling mice/five tested mice, traction test: 5 mice/five tested mice
Mice [6]; [16]
  No. of falling mice/five tested mice, traction test: 0 mice/five tested mice
[7]; 150 mg/Kg p.o.
  Analgesic Activity, % Inhibition: 24.0%
[8]; 300 mg/Kg p.o.
  Anti-inflammatory Activity, % Inhibition: 10.2%
Mice [9]; [14]
  No. of falling mice/five tested mice, rotating rod test: 5 mice/five tested mice
Mice [9]; [15]
  No. of falling mice/five tested mice, rotating rod test: 5 mice/five tested mice
Mice [9]; [16]
  No. of falling mice/five tested mice, rotating rod test: 0 mice/five tested mice
[10]
  LD50 at 168 h: > 3000 mg/kg

## Cc1c(CC(=O)N(C)C)oc2ccc(-c3ccccc3)cc12 [C, 2-dimethylcarbamoylmethyl-3-methyl-5-phenylbenzo[b]furan]
[1]
  % Inhibition, Maximal Electroshock Test: 100%
[2]
  LD50 at 168 h: > 1000 mg/kg
Mice [3]; [14]
  No. of falling mice/five tested mice, slant test: 1.5 mice/five tested mice
Mice [3]; [15]
  No. of falling mice/five tested mice, slant test: 1.5 mice/five tested mice
Mice [3]; [16]
  No. of falling mice/five tested mice, slant test: 0 mice/five tested mice
[4]; 300 mg/Kg p.o.
  % Inhibition, Strychnine Convulsion Test: 70%
[5]; 150 mg/Kg p.o.
  % Inhibition, Pentetrazole Convulsion Test: 30%
Mice [6]; [14]
  No. of falling mice/five tested mice, traction test: 2 mice/five tested mice
Mice [6]; [15]
  No. of falling mice/five tested mice, traction test: 3 mice/five tested mice
Mice [6]; [16]
  No. of falling mice/five tested mice, traction test: 0 mice/five tested mice
[7]; 150 mg/Kg p.o.
  Analgesic Activity, % Inhibition: 48.4%
[8]; 300 mg/Kg p.o.
  Anti-inflammatory Activity, % Inhibition: 20.4%
Mice [9]; [14]
  No. of falling mice/five tested mice, rotating rod test: 3 mice/five tested mice
Mice [9]; [15]
  No. of falling mice/five tested mice, rotating rod test: 3 mice/five tested mice
Mice [9]; [16]
  No. of falling mice/five tested mice, rotating rod test: 0 mice/five tested mice

## Cc1c(CC(=O)N(C)C)oc2ccc(F)cc12 [D, 2-dimethylcarbamoylmethyl-3-methyl-5-fluorobenzo[b]furan]
[1]
  % Inhibition, Maximal Electroshock Test: 85%
[2]
  LD50 at 168 h: > 1000 mg/kg
Mice [3]; [14]
  No. of falling mice/five tested mice, slant test: 4.5 mice/five tested mice
Mice [3]; [15]
  No. of falling mice/five tested mice, slant test: 4.5 mice/five tested mice
Mice [3]; [16]
  No. of falling mice/five tested mice, slant test: 1 mice/five tested mice
[4]; 300 mg/Kg p.o.
  % Inhibition, Strychnine Convulsion Test: 57%
[5]; 150 mg/Kg p.o.
  % Inhibition, Pentetrazole Convulsion Test: 80%
Mice [6]; [14]
  No. of falling mice/five tested mice, traction test: 5 mice/five tested mice
Mice [6]; [15]
  No. of falling mice/five tested mice, traction test: 5 mice/five tested mice
Mice [6]; [16]
  No. of falling mice/five tested mice, traction test: 1 mice/five tested mice
[7]; 150 mg/Kg p.o.
  Analgesic Activity, % Inhibition: 32.9%
[8]; 300 mg/Kg p.o.
  Anti-inflammatory Activity, % Inhibition: 31.2%
Mice [9]; [14]
  No. of falling mice/five tested mice, rotating rod test: 5 mice/five tested mice
Mice [9]; [15]
  No. of falling mice/five tested mice, rotating rod test: 5 mice/five tested mice
Mice [9]; [16]
  No. of falling mice/five tested mice, rotating rod test: 2 mice/five tested mice

## COc1ccc2oc(CC(=O)N(C)C)c(C)c2c1 [A, 2-dimethylcarbamoylmethyl-3-methyl-5 methoxybenzo[b]furan]
[1]
  % Inhibition, Maximal Electroshock Test: 30%
[2]
  LD50 at 168 h: > 1000 mg/kg
Mice [3]; [14]
  No. of falling mice/five tested mice, slant test: 3 mice/five tested mice
Mice [3]; [15]
  No. of falling mice/five tested mice, slant test: 1.5 mice/five tested mice
Mice [3]; [16]
  No. of falling mice/five tested mice, slant test: 0 mice/five tested mice
[4]; 300 mg/Kg p.o.
  % Inhibition, Strychnine Convulsion Test: 60%
[5]; 150 mg/Kg p.o.
  % Inhibition, Pentetrazole Convulsion Test: 40%
Mice [6]; [14]
  No. of falling mice/five tested mice, traction test: 2 mice/five tested mice
Mice [6]; [15]
  No. of falling mice/five tested mice, traction test: 2 mice/five tested mice
Mice [6]; [16]
  No. of falling mice/five tested mice, traction test: 0 mice/five tested mice
[7]; 150 mg/Kg p.o.
  Analgesic Activity, % Inhibition: 83.6%
[8]; 300 mg/Kg p.o.
  Anti-inflammatory Activity, % Inhibition: 23.3%
Mice [9]; [14]
  No. of falling mice/five tested mice, rotating rod test: 5 mice/five tested mice
Mice [9]; [15]
  No. of falling mice/five tested mice, rotating rod test: 3 mice/five tested mice
Mice [9]; [16]
  No. of falling mice/five tested mice, rotating rod test: 1 mice/five tested mice
